The values that follow come from patent publication US11840546B2, “Imidazopyridazine compounds and uses thereof” (Incyte Corporation, priority 2020, dated 2023).

The target in one test is ALK2 (aa 147-end) (Homo sapiens (Human), UniProt Q04771). Kind of test: ALK2 HTRF Assay. Type of test: biochemical. The following applies: HTRF enzymatic assay, 3 μM ATP, 0.5 nM ALK2, 25° C., 2 hr. Here is the method:
ALK2 (aa 147-end) was obtained from BPS biosciences. The enzymatic assays were conducted in white 384-well polystyrene plates in a final volume of 8 μL. The inhibitors were serially diluted in DMSO and added to the plate wells prior to addition of the other reaction components. The assays were carried out at 25° C. in the assay buffer (50 mM HEPES, pH 7.0, 10% Glycerol, 0.01% Brij50, 10 mM MgCl2, 1 mM EGTA, 5 mM DTT, and 0.01% BSA), containing 50 nM LANCE Ultra ULight™-DNA Topoisomerase 2-alpha peptide (Perkin Elmer TRF0130), and 3 μM ATP. The final concentration of DMSO in the assay was […] and the enzyme concentration was 0.5 nM for ALK2. The reactions were allowed to proceed for 2 hr for ALK2 after which, the reaction was quenched by addition of EDTA at a final concentration of 20 mM along with 1.5 nM LANCE Ultra Europium-anti-phospho-DNA Topoisomerase 2-alpha (Thr1342) antibody (Perkin Elmer TRF0218). The reaction was incubated at 25° C. for 1 hr and read on a PHERAstar FS plate reader (BMG Labtech). IC50 determination was performed by fitting percent control activity versus the log of the inhibitor concentration using the IDBS XLFit and GraphPad Prism 5.0 software.

In another test the test system is ALK2 mutant DIPG cell. To be noted: ALK2 mutant DIPG cells; cited from earlier work.

Chain of ALK2 (aa 147-end) (Q04771 147-509 limits assumed): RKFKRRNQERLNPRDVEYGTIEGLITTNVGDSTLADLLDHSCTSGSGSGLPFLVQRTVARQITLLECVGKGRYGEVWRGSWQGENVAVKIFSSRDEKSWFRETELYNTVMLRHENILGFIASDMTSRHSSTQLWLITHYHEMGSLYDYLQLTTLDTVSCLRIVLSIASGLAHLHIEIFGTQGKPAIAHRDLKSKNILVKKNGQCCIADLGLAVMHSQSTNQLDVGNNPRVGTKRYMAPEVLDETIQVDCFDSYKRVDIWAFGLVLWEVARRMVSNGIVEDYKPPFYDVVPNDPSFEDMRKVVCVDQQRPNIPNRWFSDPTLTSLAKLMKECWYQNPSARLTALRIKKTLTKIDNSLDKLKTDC

Consider `Cc1cnn(-c2ccc3c(-c4cnc5cc(-c6ccc([C@]78C[C@H]7CN(C7CCOCC7)C8)cc6)c(C)nn45)ccnc3n2)n1` (stereo in doubt) [Example 4, 2-(4-Methyl-2H-1,2,3-triazol-2-yl)-5-(6-methyl-7-(4-((1S,5R)-3-(tetrahydro-2H-pyran-4-yl)-3-azabicyclo[3.1.0]hexan-1-yl)phenyl)imidazo[1,2-b]pyridazin-3-yl)-1,8-naphthyridine], for which the IC50 against ALK2 (aa 147-end) is not above 1 nM.

`CCn1cnc(-c2ccc3c(-c4cnc5cc(-c6ccc([C@@]78C[C@@H]7CN(C7CCOCC7)C8)cc6)c(C)nn45)ccnc3n2)c1` [Example 1, 2-(1-Ethyl-1H-imidazol-4-yl)-5-(6-methyl-7-(4-((1R,5S)-3-(tetrahydro-2H-pyran-4-yl)-3-azabicyclo[3.1.0]hexan-1-yl)phenyl)imidazo[1,2-b]pyridazin-3-yl)-1,8-naphthyridine]: on ALK2 (aa 147-end), the IC50 was not above 1 nM.

For `CCn1cnc(-c2ccc3c(-c4cnc5cc(-c6ccc(CN7CC8CCC7CC8)cc6)c(C)nn45)ccnc3n2)c1` [Example 2, 2-(4-(3-(7-(1-Ethyl-1H-imidazol-4-yl)-1,8-naphthyridin-4-yl)-6-methylimidazo[1,2-b]pyridazin-7-yl)benzyl)-2-azabicyclo[2.2.2]octane], the IC50 on ALK2 (aa 147-end) is not above 1 nM.

At ALK2 (aa 147-end), `Cc1cnn(-c2ccc3c(-c4cnc5cc(-c6ccc(CN7CC8CCC7CC8)cc6)c(C)nn45)ccnc3n2)n1` [Example 3, 2-(4-(6-Methyl-3-(7-(4-methyl-2H-1,2,3-triazol-2-yl)-1,8-naphthyridin-4-yl)imidazo[1,2-b]pyridazin-7-yl)benzyl)-2-azabicyclo[2.2.2]octane] registered a half-maximal inhibitory concentration (IC50) not above 1 nM.

For the molecule `c1ccc2c(-c3cnn4cc(-c5ccc(N6CCNCC6)cc5)cnc34)ccnc2c1` [LDN-19318917], the “inhibition of ALK2 mutant DIPG cell viability” value in the test on ALK2 mutant DIPG cell was “significant inhibition”.
